# In article PMC7982674, “XMD-17-51 Inhibits DCLK1 Kinase and Prevents Lung Cancer Progression” (Frontiers in Pharmacology, 2021):
# Target: T1, Doublecortin-like kinase 1 (DCLK1) (Homo sapiens, UniProt O15075)
# T1 construct: Purified kinase-active DCLK1 (cat. no., 02-139, Carna Biosciences)
# T1 sequence (O15075 1-740): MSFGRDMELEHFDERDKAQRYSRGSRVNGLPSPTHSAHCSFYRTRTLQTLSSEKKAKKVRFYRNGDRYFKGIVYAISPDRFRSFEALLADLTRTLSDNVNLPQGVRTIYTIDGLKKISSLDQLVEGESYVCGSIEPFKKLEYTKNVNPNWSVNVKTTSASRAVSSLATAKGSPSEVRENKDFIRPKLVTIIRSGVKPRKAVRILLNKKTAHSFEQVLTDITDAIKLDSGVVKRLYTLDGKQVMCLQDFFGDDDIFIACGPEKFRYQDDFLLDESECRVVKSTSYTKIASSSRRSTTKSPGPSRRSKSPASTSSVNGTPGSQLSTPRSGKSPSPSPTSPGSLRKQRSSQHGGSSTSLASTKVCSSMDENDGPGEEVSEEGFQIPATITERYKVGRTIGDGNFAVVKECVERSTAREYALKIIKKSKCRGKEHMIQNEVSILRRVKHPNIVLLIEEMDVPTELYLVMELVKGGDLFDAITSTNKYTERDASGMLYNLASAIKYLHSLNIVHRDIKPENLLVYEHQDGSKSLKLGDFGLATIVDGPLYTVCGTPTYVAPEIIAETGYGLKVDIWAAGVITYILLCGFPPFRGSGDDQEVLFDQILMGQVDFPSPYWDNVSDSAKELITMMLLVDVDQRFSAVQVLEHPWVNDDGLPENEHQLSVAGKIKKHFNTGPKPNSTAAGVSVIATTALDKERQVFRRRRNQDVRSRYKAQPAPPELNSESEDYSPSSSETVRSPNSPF
# Assay: cell-free kinase assay with ULight-CREBtide peptide substrate, […] ATP (Envision readout)
# Type: biochemical
compound,measurement,value
CN1C(=O)c2ccccc2N(C)c2nc(Nc3cnn(C4CCNCC4)c3)ncc21 [XMD-17-51],IC50,14.6 nM
